pIC50: −log10 of the molar value.
Tested on: NCI-H929 complex spheroids, viability % test/control
Assay: Anticancer human tumor NCI-H929 cell line growth inhibition [RAS];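 further: compound exposure lasted seven days before viability was read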;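 on viability, T/C: 100% = DMSO vehicle control viability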
Details: for pIC50: curve of first compound; for viability, T/C: stronger effect = lower value; active means viability on the fitted dose curve at most 10% of control; inactive means the rest
Outline: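 Multi-cell-type spheroids: tumor cells plus HUVEC endothelial cells and mesenchymal stem cells. RAS-pathway inhibitors were combined with targeted agents, each dosed in half-log steps down from clinical Cmax, or from 10 microM when Cmax was unknown.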

[1] = second compound 0.000949 µM, first compound 0.00316 µM
[2] = second compound 0.000949 µM, first compound 0.01 µM
[3] = second compound 0.000949 µM, first compound 0.0316 µM
[4] = second compound 0.000949 µM, first compound 0.1 µM
[5] = second compound 0.000949 µM, first compound 0.316 µM
[6] = second compound 0.000949 µM, first compound 1 µM
[7] = second compound 0.003 µM, first compound 0.00316 µM
[8] = second compound 0.003 µM, first compound 0.01 µM
[9] = second compound 0.003 µM, first compound 0.0316 µM
[10] = second compound 0.003 µM, first compound 0.1 µM
[11] = second compound 0.003 µM, first compound 0.316 µM
[12] = second compound 0.003 µM, first compound 1 µM
[13] = second compound 0.00949 µM, first compound 0.00316 µM
[14] = second compound 0.00949 µM, first compound 0.01 µM
[15] = second compound 0.00949 µM, first compound 0.0316 µM
[16] = second compound 0.00949 µM, first compound 0.1 µM
[17] = second compound 0.00949 µM, first compound 0.316 µM
[18] = second compound 0.00949 µM, first compound 1 µM
[19] = second compound 0.03 µM, first compound 0.00316 µM
[20] = second compound 0.03 µM, first compound 0.01 µM
[21] = second compound 0.03 µM, first compound 0.0316 µM
[22] = second compound 0.03 µM, first compound 0.1 µM
[23] = second compound 0.03 µM, first compound 0.316 µM
[24] = second compound 0.03 µM, first compound 1 µM
[25] = second compound 0.0949 µM, first compound 0.00316 µM
[26] = second compound 0.0949 µM, first compound 0.01 µM
[27] = second compound 0.0949 µM, first compound 0.0316 µM
[28] = second compound 0.0949 µM, first compound 0.1 µM
[29] = second compound 0.0949 µM, first compound 0.316 µM
[30] = second compound 0.0949 µM, first compound 1 µM
[31] = second compound 0.3 µM, first compound 0.00316 µM
[32] = second compound 0.3 µM, first compound 0.01 µM
[33] = second compound 0.3 µM, first compound 0.0316 µM
[34] = second compound 0.3 µM, first compound 0.1 µM
[35] = second compound 0.3 µM, first compound 0.316 µM
[36] = second compound 0.3 µM, first compound 1 µM

C=CC(=O)Nc1cc(Nc2nccc(-c3cn(C)c4ccccc34)n2)c(OC)cc1N(C)CCN(C)C + CCn1c(-c2cc(N3CCN(C)CC3)cnc2C(C)OC)c2c3cc(ccc31)-c1csc(n1)CC(NC(=O)C1CC1C)C(=O)N1CCCC(N1)C(=O)OCC(C)(C)C2
active: viability, T/C [25] 7.68% | viability, T/C [26] 6.73% | viability, T/C [27] 7.23% | viability, T/C [28] 6.05% | viability, T/C [29] 5.18% | viability, T/C [30] 1.96% | viability, T/C [31] 4.84% | viability, T/C [32] 4.08% | viability, T/C [33] 4.06% | viability, T/C [34] 3.89% | viability, T/C [35] 3.59% | viability, T/C [36] 1.46%
< 6.00: pIC50 (second compound 0.000949 µM) | pIC50 (second compound 0.003 µM) | pIC50 (second compound 0.00949 µM)
> 8.50: pIC50 (second compound 0.0949 µM) | pIC50 (second compound 0.3 µM)
inactive: viability, T/C [1] 97.3% | viability, T/C [2] 95% | viability, T/C [3] 103% | viability, T/C [4] 94.9% | viability, T/C [5] 105% | viability, T/C [6] 103% | viability, T/C [7] 87.2% | viability, T/C [8] 95.3% | viability, T/C [9] 98.8% | viability, T/C [10] 98.4% | viability, T/C [11] 103% | viability, T/C [12] 106% | viability, T/C [13] 108% | viability, T/C [14] 112% | viability, T/C [15] 112% | viability, T/C [16] 114% | viability, T/C [17] 111% | viability, T/C [18] 112% | viability, T/C [19] 54.3% | viability, T/C [20] 46.8% | viability, T/C [21] 59.9% | viability, T/C [22] 49.9% | viability, T/C [23] 42.2% | viability, T/C [24] 9.94%
6.92: pIC50 (second compound 0.03 µM)

O=C(c1ccc(F)c(F)c1Nc1ccc(I)cc1F)N1CC(O)([C@@H]2CCCCN2)C1 + CCn1c(-c2cc(N3CCN(C)CC3)cnc2C(C)OC)c2c3cc(ccc31)-c1csc(n1)CC(NC(=O)C1CC1C)C(=O)N1CCCC(N1)C(=O)OCC(C)(C)C2
active: viability, T/C [12] 7.02% | viability, T/C [17] 6.27% | viability, T/C [18] 3.63% | viability, T/C [21] 4.87% | viability, T/C [22] 2.83% | viability, T/C [23] 2.77% | viability, T/C [24] 2.07% | viability, T/C [25] 4.34% | viability, T/C [26] 3.41% | viability, T/C [27] 1.75% | viability, T/C [28] 1.48% | viability, T/C [29] 1.32% | viability, T/C [30] 0.89% | viability, T/C [31] 3% | viability, T/C [32] 1.97% | viability, T/C [33] 1.19% | viability, T/C [34] 1.05% | viability, T/C [35] 1.12% | viability, T/C [36] 0.68%
6.54: pIC50 (second compound 0.003 µM)
inactive: viability, T/C [1] 93.3% | viability, T/C [2] 92.5% | viability, T/C [3] 103% | viability, T/C [4] 108% | viability, T/C [5] 97.3% | viability, T/C [6] 17.4% | viability, T/C [7] 90.8% | viability, T/C [8] 101% | viability, T/C [9] 111% | viability, T/C [10] 119% | viability, T/C [11] 45.5% | viability, T/C [13] 110% | viability, T/C [14] 117% | viability, T/C [15] 113% | viability, T/C [16] 19.9% | viability, T/C [19] 31.8% | viability, T/C [20] 15.7%
7.16: pIC50 (second compound 0.00949 µM)
> 8.50: pIC50 (second compound 0.03 µM) | pIC50 (second compound 0.0949 µM) | pIC50 (second compound 0.3 µM)
6.20: pIC50 (second compound 0.000949 µM)
